Laboratory results from PMC3019153 (PLoS ONE, 2011).
Where “and” joins values, the source holds several entries; their conditions need not be identical. Equal entries are not always repeated. Entries after “also recorded” stand apart in the source; their conditions may differ.

Columns and labels:
[1] = target: T1, mycobacterial dephosphocoenzyme A kinase R140K mutant (Mycobacterium tuberculosis, UniProt P9WPA3, R140K); type: binding
[2] = target: mycobacterial dephosphocoenzyme A kinase R140A mutant (Mycobacterium tuberculosis, UniProt P9WPA3, R140A); type: biochemical
[3] = target: T2, mycobacterial dephosphocoenzyme A kinase K14A mutant (Mycobacterium tuberculosis, UniProt P9WPA3, K14A); type: biochemical
[4] = target: mycobacterial dephosphocoenzyme A kinase L114A mutant (Mycobacterium tuberculosis, UniProt P9WPA3, L114A); type: biochemical
[5] = target: mycobacterial dephosphocoenzyme A kinase G8A mutant (Mycobacterium tuberculosis, UniProt P9WPA3, G8A); type: biochemical
[6] = target: T3, mycobacterial dephosphocoenzyme A kinase D32E mutant (Mycobacterium tuberculosis, UniProt P9WPA3, D32E); type: biochemical
[7] = target: T4, mycobacterial dephosphocoenzyme A kinase D32A mutant (Mycobacterium tuberculosis, UniProt P9WPA3, D32A); type: biochemical
[8] = target: T1, mycobacterial dephosphocoenzyme A kinase R140K mutant; type: biochemical
[9] = target: T4, mycobacterial dephosphocoenzyme A kinase D32A mutant; type: binding; conditions: pH 7.8
[10] = target: T3, mycobacterial dephosphocoenzyme A kinase D32E mutant; type: binding; conditions: pH 7.8
[11] = target: T5, wild type mycobacterial dephosphocoenzyme A kinase (CoaE) (Mycobacterium tuberculosis, UniProt P9WPA3); type: binding; conditions: pH 7.8
T5 sequence (P9WPA3 1-407): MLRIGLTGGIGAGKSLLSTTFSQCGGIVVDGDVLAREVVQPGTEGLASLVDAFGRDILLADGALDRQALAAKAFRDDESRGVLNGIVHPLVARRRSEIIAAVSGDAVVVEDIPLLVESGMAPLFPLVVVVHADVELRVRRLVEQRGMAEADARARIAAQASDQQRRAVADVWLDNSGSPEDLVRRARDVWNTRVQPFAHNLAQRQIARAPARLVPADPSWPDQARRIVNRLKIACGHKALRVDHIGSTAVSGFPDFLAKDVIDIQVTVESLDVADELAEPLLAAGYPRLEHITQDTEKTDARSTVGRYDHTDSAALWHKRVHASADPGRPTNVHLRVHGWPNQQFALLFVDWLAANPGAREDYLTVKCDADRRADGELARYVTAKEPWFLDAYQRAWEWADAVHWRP

[12] = target: T2, mycobacterial dephosphocoenzyme A kinase K14A mutant; type: binding; conditions: pH 7.8
[13] = target: T5, wild type mycobacterial dephosphocoenzyme A kinase (CoaE); type: biochemical

SMILES | Kcat [2] | Kcat [3] | Km [3] [µM] | Kcat [4] [s⁻¹] | Km [4] [µM] | Kcat [5] [s⁻¹] | Km [5] [µM] | Kcat [6] [s⁻¹] | Km [6] [µM] | increase in the affinity of the mutant enzyme [6] [%] | Kcat [7] [s⁻¹] | ΔH [12] | ΔS [12] | other results
Nc1ncnc2c1ncn2[C@@H]1O[C@H](COP(=O)(O)OP(=O)(O)OP(=O)(O)O)[C@@H](O)[C@H]1O [ATP] | nr | 2.34 and 2.34 min^−1 | 86.7 | 0.0192 | 63.9 | 0.04272 | 59.8 | 0.0666 | 34.5 | 60.58 | 0.014 | – | – | binding to ATP (in words) [1]: poor binding; also recorded: very poor binding; Km [2]: nr; increase in the Km [3]: 50%; reduction in the Kcat [3]: 19%; Kcat, % of the WT [7]: about 28%
CC(C)(COP(=O)(O)OP(=O)(O)OC[C@H]1O[C@@H](n2cnc3c(N)ncnc32)[C@H](O)[C@@H]1O)[C@@H](O)C(=O)NCCC(=O)NCCS [DCoA, dephosphocoenzyme A] | nr | 1.532 min⁻¹ | 75.8 | 0.0569 | 80.9 | 0.02572 | 37.2 | 0.0327 | 21.7 | 62.17 | 0.00171 | -3576 calM^−1 and −3576(±115.7) calM^−1 | 5.73(±0.37) calM^−1K^−1 | Kcat [8]: 0.00755 s⁻¹; Kcat, % of the WT [8]: ~15%; Km [8]: 181 µM; binding of the leading substrate (in words) [1]: reasonably well; Ka ([1]; pH 7.8): 2.17(±1.23E3) M^−1*10^−4; ΔH ([1]; pH 7.8): −7723 calM^−1; ΔS ([1]; pH 7.8): −6.5((±0.49) calM^−1K^−1; ΔH [9]: −1559(±72.9) calM^−1; ΔS [9]: −35.1(±0.98) calM^−1K^−1; Ka [10]: 2.12 (±2.61E3) M^−1*10^−4; ΔH [10]: −4355(±138.7) calM^−1; ΔS [10]: 4.94(±0.42) calM^−1K^−1; ΔH [11]: −3719((±201.5) calM^−1; ΔS [11]: 6.32(±0.34) calM^−1K^−1; Ka [12]: 1.32(±1.45E3) M^−1*10^−4; Kcat [13]: 0.0257 s⁻¹ and 0.0293 s⁻¹; Km [7]: 501 µM; increase in the Km [7]: 15 fold
Nc1ncnc2c1ncn2[C@@H]1O[C@H](CO[P@](=O)(O)O[P@](=O)(O)O[P@@](=O)(O)S)[C@@H](O)[C@H]1O [NHATP, ATP-γS] | – | – | – | – | – | – | – | – | – | – | – | −1826 calM^−1 and −1826(±195.7) calM^−1 | 13.8 calM^−1K^−1 and 13.8(±0.59) calM^−1K^−1 | N (binding) ([1]; pH 7.8): No binding
